# Data taken from ChEMBL document CHEMBL3351462, “RORγt Modulators Are Potentially Useful for the Treatment of the Immune-Mediated Inflammatory Diseases” (ACS Med Chem Lett, 2014).
# What was measured:
# [1] = molecular target: T1, Nuclear receptor ROR-gamma (Homo sapiens) (UniProt P51449); assay: Modulator activity at GAL4-tagged human RORgammat ligand binding domain expressed HEK293T cells by luciferase reporter gene assay relative to untreated control; format: cell-based; details: HEK-293T, concentration not given here
# T1 sequence (whole entry): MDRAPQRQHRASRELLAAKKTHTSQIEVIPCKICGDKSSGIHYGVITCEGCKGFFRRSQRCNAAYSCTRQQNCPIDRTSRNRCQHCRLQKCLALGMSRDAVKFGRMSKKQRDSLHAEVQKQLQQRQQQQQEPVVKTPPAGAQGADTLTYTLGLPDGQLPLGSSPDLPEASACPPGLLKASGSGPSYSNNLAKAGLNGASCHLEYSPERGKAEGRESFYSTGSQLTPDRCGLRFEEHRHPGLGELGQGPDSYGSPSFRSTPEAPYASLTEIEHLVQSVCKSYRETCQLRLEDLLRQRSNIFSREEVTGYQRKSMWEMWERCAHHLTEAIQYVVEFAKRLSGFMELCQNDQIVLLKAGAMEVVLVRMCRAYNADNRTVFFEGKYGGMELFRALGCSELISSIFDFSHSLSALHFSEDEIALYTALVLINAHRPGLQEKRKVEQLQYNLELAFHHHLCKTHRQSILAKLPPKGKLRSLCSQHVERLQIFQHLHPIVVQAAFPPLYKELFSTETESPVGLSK
# T-cell = assay: Inhibition of IL17 production in human CD4-positive T cells incubated for 3 days; format: functional, cell-based; details: 72 h
# [2] = molecular target: T2, Nuclear receptor ROR-gamma (Homo sapiens, UniProt P51449); assay: Binding affinity to human wild type RORgammat ligand binding domain expressed in Escherichia coli by thermofluor assay
# T2 sequence (P51449 whole entry): T1 sequence (whole entry)
# [3] = molecular target: T2, Nuclear receptor ROR-gamma; assay: Modulator activity at GAL4-tagged human RORgammat ligand binding domain expressed HEK293T cells by luciferase reporter gene assay; format: cell-based, HEK-293T
inhibition [1],IC50 (T-cell),Kd [2],IC50 [3],SMILES
72%,590 nM,,,Cn1cncc1C(O)(c1ccc(Cl)cc1)c1ccc2nc(Cl)c(Cc3ccccc3)c(Cl)c2c1 (stereo not given)
94%,1.5 nM,,,COc1nc2ccc(C(O)(c3sc(C)nc3C)c3cnnn3C)cc2c(Cl)c1Cc1ccc(C(F)(F)F)cc1 (stereo not given)
99%,25 nM,,,Cn1cncc1C(O)(c1ccc(C(F)(F)F)nc1)c1ccc2nc(C#N)c(Cc3ccc(-n4cccn4)cc3)c(C#N)c2c1 (stereo not given)
85%,85 nM,0.83 nM,6.5 nM,OC(c1ccncc1)(c1ccc2nc(Cl)c(Cc3ccc(Cl)cc3)c(Cl)c2c1)c1cncs1 (stereo not given)
